Experimental data: patent publication US12404303B2, “Polypeptide and use thereof” (NANJING ANJI BIOLOGICAL TECHNOLOGY CO., LTD., priority 2019, dated 2025)
No end group written: not given here.

Tests used:
[1] = system: SD rats with bleomycin-induced pulmonary fibrosis; experiment: Bleomycin-induced pulmonary fibrosis animal model; type: in vivo; conditions: bleomycin 5 mg/kg intratracheal, polypeptides 7.5 mg/kg subcutaneous twice a day, positive drug 25 mg/kg intragastric once a day, 14 days
Method: SD rats were anesthetized by intraperitoneal injection of 1 mL/100 g 4% chloral hydrate. After anesthesia, the rats were fixed and their necks were disinfected by using cotton with 75% alcohol. The skin of the rat neck was longitudinally cut with scissors, and the fascia and muscle were longitudinally bluntly torn with tweezers to expose the trachea. A syringe was inserted into the trachea to inject 5 mg/kg bleomycin, while a blank group was injected with an equal amount of normal saline. Then a rat plate was quickly erected and rotated, the rats' breathing was observed, the neck wound was sterilized after rotation and was sewn, and an amoxicillin anti-inflammatory drug was sprinkled on the suture. After the operation, the rats were put back into a dry and clean cage for resting, waiting was performed for awakening. The rats were awakened after about 1-2 hours, and then fed normally. On the 7th day after modeling, modeling group animals randomly fell into a model group, a Nintedanib positive drug group, polypeptide I, II, III and IV dosage groups, and a normal control group, and the groups were administered separately for an administration cycle of 14 days. Living situations of rats were observed every day and their weights were weighed.

[2] = system: streptococcus pneumoniae; experiment: Mouse pneumonia model, bacterial pneumonia; type: in vivo, BALB/C mice; conditions: average values±standard deviation
From the text: (§1) A mouse pneumonia model was successfully established by using a nasal drip method. BALB/C mice with a body weight of 18-24 g were selected, and then anesthetized with ether on day 0, day 1 and day 2, respectively, prepared streptococcus pneumoniae bacteria solution, adenovirus concentrated solution, mycoplasma pneumoniae, chlamydia pneumoniae, protozoa and pneumonia fungi were slowly dropped into the nasal cavity of the mice, so that the bacteria solutions entered the trachea and bronchi, and the bacteria solutions were prevented from flowing into the esophagus during the operation to avoid inactivation of the bacteria solutions, so that the mouse pneumonia model was established. After the model was successfully established, the polypeptide according to the present disclosure was administered, as shown in FIG. 7 and Table 9. […] The experimental results are represented on the basis of average values±standard deviation.

[3] = system: adenovirus; experiment: Mouse pneumonia model, viral pneumonia; type: in vivo, BALB/C mice; conditions: average values±standard deviation
From the text: as §1

[4] = system: mycoplasma pneumoniae; experiment: Mouse pneumonia model, mycoplasma pneumonia; type: in vivo, BALB/C mice; conditions: average values±standard deviation
From the text: as §1

[5] = system: chlamydia pneumoniae; experiment: Mouse pneumonia model, chlamydia pneumonia; type: in vivo, BALB/C mice; conditions: average values±standard deviation
From the text: as §1

[6] = system: protozoa; experiment: Mouse pneumonia model, protozoal pneumonia; type: in vivo, BALB/C mice; conditions: average values±standard deviation
From the text: as §1

[7] = system: pneumonia fungi; experiment: Mouse pneumonia model, fungal pneumonia; type: in vivo, BALB/C mice; conditions: average values±standard deviation
From the text: as §1

[8] = system: pulmonary infections; experiment: Mouse pneumonia model, pneumonia caused by pulmonary infections; type: in vivo, BALB/C mice; conditions: average values±standard deviation
From the text: as §1

[9] = system: LX-2 cells; experiment: Proliferation of LX-2 cells induced by TGF-β1 (MTT, in vitro hepatic fibrosis model); type: cell-based; conditions: polypeptide 1 μmol/L, TGF-β1 10 ng/mL, 48 hours; for OD value: MTT, 570 nm
Method: LX-2 cells were cultured in 1640 medium containing 10% FBS, and cultured in an incubator with 5% CO2 at 37° C. The medium was replaced every two days, and subcultured according to the cell density. The LX-2 cells in a logarithmic growth phase were digested with 0.25% pancreatin to make cell suspension. The density of the cells was adjusted to 4×10^5 cells/mL, and the cells were inoculated into 96-well plates with 100 μL per well and cultured overnight. On the second day, TGF-β1 was added to induce the proliferation and activation of the LX-2 cells, and the polypeptide drugs were administrated at 1 μmol/L. TGF-β1 (10 ng/mL) was added to each group except the blank group. The cells were cultured in the incubator for 48 hours, and then 10 μL of MTT was added to each well. The MTT was removed after 4 hours, and 150 μL of DMSO was added for reaction for 5 min. An OD value was measured by a microplate reader at 570 nm.

[10] = system: SD rats with renal fibrosis; experiment: Renal fibrosis animal model (ureter ligation), TGF-β1 in serum; type: in vivo; conditions: 7.5 mg/kg subcutaneous twice a day, 14 days, vs model group; FIG. 4
Method: A renal fibrosis animal model was established. SD rats were anesthetized with 4% chloral hydrate, injected with 1 mL/100 g intraperitoneally, fixed to an operation board, and sterilized in an operation area for later use. […] Muscular layers and abdominal walls were sewed layer by layer, the suture was disinfected with alcohol. After SD rats woke up, the rats were put into a cage for feeding. In the blank group, ureter was not ligated, and other steps were the same. Then, the animals fell into a blank group, a model group, and polypeptide administration groups, and the administration was started on the second day after the operation, twice a day for 14 days. After administration for 14 days, blood was taken and supernatant was taken to detect the content of TGF-β1 in serum. [table]

[11] = system: cardiac fibroblasts of rats; experiment: Proliferation of cardiac fibroblasts of rats (MTT, in vitro myocardial fibrosis model); type: cell-based; conditions: 1 μmol/L; for Optical density values, 12 hours / Optical density values, 24 hours / Optical density values, 48 hours: MTT, 570 nm; for inhibition of the proliferation of cardiac fibroblasts of rats: at 24 hours and 48 hours
Method: The inhibitory effect of a polypeptide on cardiac fibroblasts of rats was detected by MTT assay. Cells were cultured in a DMEM medium containing 10% of FBS, the cytoplasm was made into 1×10^5/mL cell suspension, and 100 μL per well was inoculated into a 96-well plate. After the cells adhered to the wall, the medium was replaced with a serum-free DMEM medium, and the serum-free medium was discarded after 24 hours. The cells were cultured with different polypeptides of 1 μmol/L, and 5 multiple wells were set for each concentration. After 12, 24 and 48 hours separately, 10 μL of MTT was added to each well. After 4 hours, MTT was sucked out, and 150 μL of DMSO was added to each well. After reaction for 5 min, an OD value was measured at 570 nm by a microplate reader.

[12] = system: myelofibrosis model mice; experiment: Myelofibrosis model induced by rh EPO; type: in vivo, Kunming mice; parameters: WBC / Hb / MCV / RDW: unit not given here; conditions: 10 mg/kg subcutaneous twice a day, 28 days; for Hb / MCV / RDW / WBC: peripheral blood; for content of TGF-β1 in serum: mouse serum, vs model group, FIG. 5
Method: There were 10 mice in each group. The normal control group was injected with normal saline (0.3 mL for each mouse), and the remaining groups were injected with rh EPO (0.1 unit/gram, body weight, 0.3 mL for each mouse) intraperitoneally every day. After induction for two days, drug therapy was started, subcutaneous injection was given twice a day, and after continuous administration for 28 days, the mouse heart was punctured for blood extraction, some blood was used for peripheral blood analysis, some blood was centrifuged, and the supernatant was taken to measure the content of TGF-β1 in the serum of mice. [table]

[13] = system: skin fibrosis model mice; experiment: Skin fibrosis model induced by bleomycin, HYP in skin tissue; type: in vivo, C57/BL black mice; conditions: skin tissue of the mouse back; 10 mg/kg subcutaneous twice a day, 28 days, vs model group; FIG. 6
Method: Bleomycin (10 μg/mL) was injected subcutaneously every day for 28 days to form skin fibrosis. During the modeling period, the administration groups were given polypeptide drugs every day for treatment, with 10 mice in each group. After modeling, the mice were killed on the next day, and the skin tissue of the mouse back was taken to detect the content of HYP in the skin tissue. [table]

Compound	Survival rate (%) [1]	Inhibitory effect on pulmonary infections, Bacterial pneumonia [2]	Inhibitory effect on pulmonary infections, Viral pneumonia [3]	Inhibitory effect on pulmonary infections, Mycoplasma pneumonia [4]	Inhibitory effect on pulmonary infections, Chlamydia pneumonia [5]	Inhibitory effect on pulmonary infections, Protozoal pneumonia [6]	Inhibitory effect on pulmonary infections, Fungal pneumonia [7]	Inhibitory effect on pulmonary infections, Pneumonia caused by pulmonary infections [8]	inhibition of proliferation and activation of LX-2 cells, difference from model group [9]	OD value [9]	content of TGF-β1 in serum [10]	Optical density values, 12 hours [11]	Optical density values, 24 hours [11]	Optical density values, 48 hours [11]	inhibition of the proliferation of cardiac fibroblasts of rats [11]	Hb [12]	MCV [12]	RDW [12]	WBC [12]	expression of HYP in the skin tissue [13]	other results
COC(=O)c1ccc2c(c1)NC(=O)/C2=C(\Nc1ccc(N(C)C(=O)CN2CCN(C)CC2)cc1)c1ccccc1 [Positive drug, Nintedanib, reference compound]	85.7%	–	–	–	–	–	–	–	–	–	–	–	–	–	–	–	–	–	–	–	–
Penicillin [reference compound]	–	35.05 ± 5.75	38.07 ± 2.27	41.77 ± 5.73	30.75 ± 3.31	39.04 ± 3.71	38.61 ± 3.82	35.67 ± 4.55	–	–	–	–	–	–	–	–	–	–	–	–	–
RGADRAGGGGPRCWCGE (cysteine pairing not given here) [Polypeptide II]	85.7%	49.25 ± 9.48	70.33 ± 9.27	54.69 ± 5.72	57.81 ± 5.21	63.60 ± 6.16	65.32 ± 3.07	66.15 ± 5.87	highly significantly different from the model group (**P<0.01)	0.59 ± 0.02	highly significantly different from the model group (***P<0.001)	0.325 ± 0.004	0.377 ± 0.015	0.518 ± 0.015	could inhibit the proliferation	151 ± 19	51 ± 9	26 ± 3	5.61 ± 1.43	highly significantly different from the model group (***P<0.001)	–
RGADRAGGGGPRCWRGE [Polypeptide I]	78.6%	43.83 ± 7.59	58.00 ± 6.84	41.48 ± 5.55	45.18 ± 7.46	48.16 ± 5.46	45.65 ± 9.68	52.47 ± 7.88	significantly different from the model group (*P<0.05)	0.66 ± 0.02	highly significantly different from the model group (**P<0.01)	0.326 ± 0.006	0.392 ± 0.008	0.580 ± 0.012	could inhibit the proliferation	143 ± 23	52 ± 4	31 ± 2	5.97 ± 1.76	highly significantly different from the model group (***P<0.001)	content of TGF-β1 in serum [12]: highly significantly different from the model group (**P<0.01)
RGADRAGGGGPRCYCGE (cysteine pairing not given here) [Polypeptide IV]	92.9%	45.05 ± 3.25	58.07 ± 2.07	43.27 ± 5.63	38.85 ± 3.11	49.04 ± 3.17	48.61 ± 3.22	55.57 ± 4.25	significantly different from the model group (*P<0.05)	0.64 ± 0.03	highly significantly different from the model group (**P<0.01)	0.309 ± 0.010	0.385 ± 0.008	0.598 ± 0.013	could inhibit the proliferation	155 ± 16	54 ± 5	24 ± 1	5.83 ± 1.07	highly significantly different from the model group (*P<0.05)	content of TGF-β1 in serum [12]: highly significantly different from the model group (**P<0.01)
